Measurements reported in patent publication US10202361B2, “Pyridazinones as herbicides” (E I DU PONT DE NEMOURS AND COMPANY, priority 2014, dated 2019).

Key:
Assay in all cases: Test E pre-/postemergence greenhouse herbicide test
Format in all cases: in vivo
[1] = test system: poinsettia, wild (wild poinsettia, Euphorbia heterophylla); conditions: scale 0 to 100
corn (Zea mays) = conditions: scale 0 to 100
Description: (§1) Seeds of plant species selected from corn (Zea mays), soybean (Glycine max), lambsquarters (Chenopodium album), poinsettia, wild (wild poinsettia, Euphorbia heterophylla), pigweed, palmer (palmer pigweed, Amaranthus palmeri), waterhemp (common waterhemp, Amaranthus rudis), surinam grass (Brachiaria decumbens), crabgrass, large (large crabgrass Digitaria sanguinalis), crabgrass, Brazil (Brazilian crabgrass, Digitaria horizontalis), panicum, fall (fall panicum, Panicum dichotomiflorum), foxtail, giant (giant foxtail, Setaria faberii), foxtail, green (green foxtail, Setaria viridis), goosegrass (Eleusine indica), johnsongrass (Sorghum halepense), ragweed (common ragweed, Ambrosia elatior), barnyardgrass (Echinochloa crus-galli), sandbur (southern sandbur, Cenchrus echinatus), arrowleaf sida (Sida rhombifolia), ryegrass, Italian (Italian ryegrass, Lolium multiflorum), dayflower, VA (Virginia dayflower, Commelina virginica), field bindweed (Convolvulus arvensis), cocklebur (common cocklebur, Xanthium strumarium), morningglory (Ipomoea coccinea), nightshade (eastern black nightshade, Solanum ptycanthum), kochia (Kochia scoparia), nutsedge, yellow (yellow nutsedge, Cyperus esculentus), smartweed (ladysthumb smartweed, Polygonum persicaria), velvetleaf (Abutilon theophrasti), and beggarticks (hairy beggarticks, Bidens pilosa), were planted into a silt loam soil and treated preemergence with test chemicals formulated in a non-phytotoxic solvent mixture which included a surfactant.
(§2) At the same time, plants from these crop and weed species and also waterhemp_RES1, (ALS & Triazine resistant common waterhemp, Amaranthus rudis), and waterhemp_RES2, (ALS & HPPD resistant common waterhemp, Amaranthus rudis) were planted in pots containing Redi-Earth® planting medium (Scotts Company, 14111 Scottslawn Road, Marysville, Ohio 43041) comprising spaghnum peat moss, vermiculite, wetting agent and starter nutrients were treated with postemergence applications of test chemicals formulated in the same manner. Plants ranged in height from 2 to 18 cm for postemergence treatments (1- to 4-leaf stage). Treated plants and controls were maintained in a greenhouse for 14 to 21 d, after which time all species were compared to controls and visually evaluated. Plant response ratings, summarized in Table E, are based on a scale of 0 to 100 where 0 is no effect and 100 is complete control. A dash (-) response means no test result.

[2] = test system: velvetleaf (Abutilon theophrasti); conditions: Preemergence, scale 0 to 100
Description: as §1, §2

kochia (Kochia scoparia) = conditions: Preemergence, scale 0 to 100
Description: as §1, §2

[3] = test system: pigweed, palmer (palmer pigweed, Amaranthus palmeri); conditions: scale 0 to 100
Description: as §1, §2

[4] = test system: beggarticks (hairy beggarticks, Bidens pilosa); conditions: scale 0 to 100
Description: as §1, §2

[5] = test system: panicum, fall (fall panicum, Panicum dichotomiflorum); conditions: scale 0 to 100
Description: as §1, §2

soybean (Glycine max) = conditions: scale 0 to 100
Description: as §1, §2

[6] = test system: johnsongrass (Sorghum halepense); conditions: Preemergence, scale 0 to 100
Description: as §1, §2

[7] = test system: lambsquarters (Chenopodium album); conditions: Preemergence, scale 0 to 100
Description: as §1, §2

[8] = test system: ragweed (common ragweed, Ambrosia elatior); conditions: Preemergence, scale 0 to 100
Description: as §1, §2

[9] = test system: barnyardgrass (Echinochloa crus-galli); conditions: scale 0 to 100
Description: as §1, §2

[10] = test system: ryegrass, Italian (Italian ryegrass, Lolium multiflorum); conditions: scale 0 to 100
Description: as §1, §2

[11] = test system: nightshade (eastern black nightshade, Solanum ptycanthum); conditions: Preemergence, scale 0 to 100
Description: as §1, §2

[12] = test system: morningglory (Ipomoea coccinea); conditions: Preemergence, scale 0 to 100
Description: as §1, §2

[13] = test system: foxtail, green (green foxtail, Setaria viridis); conditions: Preemergence, scale 0 to 100
Description: as §1, §2

Compound: COc1cc(=O)n(-c2ccc(F)cc2)nc1Cc1ccnc(C(F)(F)F)c1 [Compound 17, 2-(4-fluorophenyl)-5-methoxy-6-[[2-(trifluoromethyl)-4-pyridinyl]methyl]-3 (2H)-pyridazinone]
- Plant response rating: Poinsettia, Wild ([1]; Postemergence, 16 g ai/ha): 20
- Plant response rating: Poinsettia, Wild ([1]; Postemergence, 31 g ai/ha): 30
- Plant response rating: Poinsettia, Wild ([1]; Postemergence, 62 g ai/ha): 40
- Plant response rating: Poinsettia, Wild ([1]; Postemergence, 125 g ai/ha): 40
- Plant response rating: Poinsettia, Wild ([1]; Postemergence, 250 g ai/ha): 50
- Plant response rating: Poinsettia, Wild ([1]; Preemergence, 16 g ai/ha): 20
- Plant response rating: Poinsettia, Wild ([1]; Preemergence, 31 g ai/ha): 20
- Plant response rating: Poinsettia, Wild ([1]; Preemergence, 62 g ai/ha): 30
- Plant response rating: Poinsettia, Wild ([1]; Preemergence, 125 g ai/ha): 40
- Plant response rating: Poinsettia, Wild ([1]; Preemergence, 250 g ai/ha): 100
- Plant response rating: Corn (corn (Zea mays); Postemergence, 16 g ai/ha): 0
- Plant response rating: Corn (corn (Zea mays); Postemergence, 31 g ai/ha): 10
- Plant response rating: Corn (corn (Zea mays); Postemergence, 62 g ai/ha): 10
- Plant response rating: Corn (corn (Zea mays); Postemergence, 125 g ai/ha): 35
- Plant response rating: Corn (corn (Zea mays); Postemergence, 250 g ai/ha): 65
- Plant response rating: Corn (corn (Zea mays); Preemergence, 16 g ai/ha): 0
- Plant response rating: Corn (corn (Zea mays); Preemergence, 31 g ai/ha): 0
- Plant response rating: Corn (corn (Zea mays); Preemergence, 62 g ai/ha): 30
- Plant response rating: Corn (corn (Zea mays); Preemergence, 125 g ai/ha): 65
- Plant response rating: Corn (corn (Zea mays); Preemergence, 250 g ai/ha): 80
- Plant response rating: Velvetleaf ([2]; 16 g ai/ha): 0
- Plant response rating: Velvetleaf ([2]; 31 g ai/ha): 0
- Plant response rating: Velvetleaf ([2]; 62 g ai/ha): 20
- Plant response rating: Velvetleaf ([2]; 125 g ai/ha): 25
- Plant response rating: Velvetleaf ([2]; 250 g ai/ha): 70
- Plant response rating: Kochia (kochia (Kochia scoparia); 16 g ai/ha): 70
- Plant response rating: Kochia (kochia (Kochia scoparia); 31 g ai/ha): 90
- Plant response rating: Kochia (kochia (Kochia scoparia); 62 g ai/ha): 95
- Plant response rating: Kochia (kochia (Kochia scoparia); 125 g ai/ha): 98
- Plant response rating: Kochia (kochia (Kochia scoparia); 250 g ai/ha): 98
- Plant response rating: Pigweed, Palmer ([3]; Postemergence, 16 g ai/ha): 20
- Plant response rating: Pigweed, Palmer ([3]; Postemergence, 31 g ai/ha): 20
- Plant response rating: Pigweed, Palmer ([3]; Postemergence, 62 g ai/ha): 30
- Plant response rating: Pigweed, Palmer ([3]; Postemergence, 125 g ai/ha): 80
- Plant response rating: Pigweed, Palmer ([3]; Postemergence, 250 g ai/ha): 100
- Plant response rating: Pigweed, Palmer ([3]; Preemergence, 16 g ai/ha): 0
- Plant response rating: Pigweed, Palmer ([3]; Preemergence, 31 g ai/ha): 0
- Plant response rating: Pigweed, Palmer ([3]; Preemergence, 62 g ai/ha): 25
- Plant response rating: Pigweed, Palmer ([3]; Preemergence, 125 g ai/ha): 80
- Plant response rating: Pigweed, Palmer ([3]; Preemergence, 250 g ai/ha): 100
- Plant response rating: Beggarticks ([4]; Postemergence, 16 g ai/ha): 20
- Plant response rating: Beggarticks ([4]; Postemergence, 31 g ai/ha): 30
- Plant response rating: Beggarticks ([4]; Postemergence, 62 g ai/ha): 30
- Plant response rating: Beggarticks ([4]; Postemergence, 125 g ai/ha): 35
- Plant response rating: Beggarticks ([4]; Postemergence, 250 g ai/ha): 55
- Plant response rating: Beggarticks ([4]; Preemergence, 16 g ai/ha): 0
- Plant response rating: Beggarticks ([4]; Preemergence, 31 g ai/ha): 0
- Plant response rating: Beggarticks ([4]; Preemergence, 62 g ai/ha): 0
- Plant response rating: Beggarticks ([4]; Preemergence, 125 g ai/ha): 5
- Plant response rating: Beggarticks ([4]; Preemergence, 250 g ai/ha): 20
- Plant response rating: Panicum, Fall ([5]; Postemergence, 16 g ai/ha): 15
- Plant response rating: Panicum, Fall ([5]; Postemergence, 31 g ai/ha): 20
- Plant response rating: Panicum, Fall ([5]; Postemergence, 62 g ai/ha): 20
- Plant response rating: Panicum, Fall ([5]; Postemergence, 125 g ai/ha): 30
- Plant response rating: Panicum, Fall ([5]; Postemergence, 250 g ai/ha): 50
- Plant response rating: Panicum, Fall ([5]; Preemergence, 16 g ai/ha): 80
- Plant response rating: Panicum, Fall ([5]; Preemergence, 31 g ai/ha): 90
- Plant response rating: Panicum, Fall ([5]; Preemergence, 62 g ai/ha): 98
- Plant response rating: Panicum, Fall ([5]; Preemergence, 125 g ai/ha): 100
- Plant response rating: Panicum, Fall ([5]; Preemergence, 250 g ai/ha): 100
- Plant response rating: Soybean (soybean (Glycine max); Postemergence, 16 g ai/ha): 30
- Plant response rating: Soybean (soybean (Glycine max); Postemergence, 31 g ai/ha): 30
- Plant response rating: Soybean (soybean (Glycine max); Postemergence, 62 g ai/ha): 50
- Plant response rating: Soybean (soybean (Glycine max); Postemergence, 125 g ai/ha): 60
- Plant response rating: Soybean (soybean (Glycine max); Postemergence, 250 g ai/ha): 85
- Plant response rating: Soybean (soybean (Glycine max); Preemergence, 16 g ai/ha): 0
- Plant response rating: Soybean (soybean (Glycine max); Preemergence, 31 g ai/ha): 0
- Plant response rating: Soybean (soybean (Glycine max); Preemergence, 62 g ai/ha): 0
- Plant response rating: Soybean (soybean (Glycine max); Preemergence, 125 g ai/ha): 65
- Plant response rating: Soybean (soybean (Glycine max); Preemergence, 250 g ai/ha): 80
- Plant response rating: Johnsongrass ([6]; 16 g ai/ha): 0
- Plant response rating: Johnsongrass ([6]; 31 g ai/ha): 10
- Plant response rating: Johnsongrass ([6]; 62 g ai/ha): 35
- Plant response rating: Johnsongrass ([6]; 125 g ai/ha): 75
- Plant response rating: Johnsongrass ([6]; 250 g ai/ha): 90
- Plant response rating: Lambsquarters ([7]; 16 g ai/ha): 98
- Plant response rating: Lambsquarters ([7]; 31 g ai/ha): 98
- Plant response rating: Lambsquarters ([7]; 62 g ai/ha): 98
- Plant response rating: Lambsquarters ([7]; 125 g ai/ha): 98
- Plant response rating: Lambsquarters ([7]; 250 g ai/ha): 100
- Plant response rating: Ragweed ([8]; 16 g ai/ha): 0
- Plant response rating: Ragweed ([8]; 31 g ai/ha): 0
- Plant response rating: Ragweed ([8]; 62 g ai/ha): 10
- Plant response rating: Ragweed ([8]; 125 g ai/ha): 35
- Plant response rating: Ragweed ([8]; 250 g ai/ha): 80
- Plant response rating: Barnyardgrass ([9]; Postemergence, 16 g ai/ha): 0
- Plant response rating: Barnyardgrass ([9]; Postemergence, 31 g ai/ha): 10
- Plant response rating: Barnyardgrass ([9]; Postemergence, 62 g ai/ha): 20
- Plant response rating: Barnyardgrass ([9]; Postemergence, 125 g ai/ha): 20
- Plant response rating: Barnyardgrass ([9]; Postemergence, 250 g ai/ha): 65
- Plant response rating: Barnyardgrass ([9]; Preemergence, 16 g ai/ha): 0
- Plant response rating: Barnyardgrass ([9]; Preemergence, 31 g ai/ha): 20
- Plant response rating: Barnyardgrass ([9]; Preemergence, 62 g ai/ha): 35
- Plant response rating: Barnyardgrass ([9]; Preemergence, 125 g ai/ha): 80
- Plant response rating: Barnyardgrass ([9]; Preemergence, 250 g ai/ha): 80
- Plant response rating: Ryegrass, Italian ([10]; Postemergence, 16 g ai/ha): 0
- Plant response rating: Ryegrass, Italian ([10]; Postemergence, 31 g ai/ha): 0
- Plant response rating: Ryegrass, Italian ([10]; Postemergence, 62 g ai/ha): 0
- Plant response rating: Ryegrass, Italian ([10]; Postemergence, 125 g ai/ha): 0
- Plant response rating: Ryegrass, Italian ([10]; Postemergence, 250 g ai/ha): 15
- Plant response rating: Ryegrass, Italian ([10]; Preemergence, 16 g ai/ha): 20
- Plant response rating: Ryegrass, Italian ([10]; Preemergence, 31 g ai/ha): 25
- Plant response rating: Ryegrass, Italian ([10]; Preemergence, 62 g ai/ha): 25
- Plant response rating: Ryegrass, Italian ([10]; Preemergence, 125 g ai/ha): 50
- Plant response rating: Ryegrass, Italian ([10]; Preemergence, 250 g ai/ha): 75
- Plant response rating: Nightshade ([11]; 16 g ai/ha): 0
- Plant response rating: Nightshade ([11]; 31 g ai/ha): 80
- Plant response rating: Nightshade ([11]; 62 g ai/ha): 98
- Plant response rating: Nightshade ([11]; 125 g ai/ha): 98
- Plant response rating: Nightshade ([11]; 250 g ai/ha): 98
- Plant response rating: Morningglory ([12]; 16 g ai/ha): 0
- Plant response rating: Morningglory ([12]; 31 g ai/ha): 35
- Plant response rating: Morningglory ([12]; 62 g ai/ha): 60
- Plant response rating: Morningglory ([12]; 125 g ai/ha): 65
- Plant response rating: Morningglory ([12]; 250 g ai/ha): 70
- Plant response rating: Foxtail, Green ([13]; 16 g ai/ha): 0
- Plant response rating: Foxtail, Green ([13]; 31 g ai/ha): 50
- Plant response rating: Foxtail, Green ([13]; 62 g ai/ha): 75
- Plant response rating: Foxtail, Green ([13]; 125 g ai/ha): 75
- Plant response rating: Foxtail, Green ([13]; 250 g ai/ha): 100
